{
  "source": "patent US20250129329A1",
  "about": "“CULTURE MEDIUM FOR HEPATOMA ORGANOID CULTURE, HEPATOMA ORGANOID CULTURE METHOD, AND APPLICATION THEREOF” (PRECEDO PHARMACEUTICALS CO., LTD, priority 2021, published 2025)",
  "format_in_all_cases": "cell-based, human",
  "key": {"[1]": {"test_system": "hepatoma organoids isolated from liver cancer tissue", "test": "Effects of medium additives on proliferation of hepatoma organoids (Example 1)", "details": "additive in basic medium at the final concentration; organoid diameters after 7 days compared with Basic Medium", "description": "First, a basic medium containing initial medium was prepared. […] In this embodiment, the formulation of the basic medium is: DMEM/F12 medium (purchased from Corning)+100 μg/mL Primocin (purchased from InvivoGen, 0.2% (v/v), commercial product has a concentration of 50 mg/ml).\nDifferent types of additives (see Table 1) were added to the basic medium to prepare culture mediums for hepatoma organoid with different components.\nTissue samples (intraoperative) of liver cancer solid tumor were obtained from patients by professional medical practitioner of professional medical institutions, and all patients have signed the informed consent. Intraoperative samples having the size of 0.25 cm3 were stored and transported using commercial tissue preservation solution (manufacturer: Miltenyi Biotec).\n• 3.1. Tissue samples were transferred from the ultra-clean workbench to a culture dish, and the tissue with blood was removed. The tissue samples were rinsed twice with basic medium, and then were transferred to another culture dish and mechanically cut with a sterile scalpel into tissue blocks of 1×1×1 mm3 in size. • 3.2. The cut intraoperative tissues were aspirated into a 15 mL centrifuge tube, to which 5 mL of basic medium was added, fully mixed, and then centrifuged at 1500 rpm for 4 minutes. • 3.3. The supernatant was discarded, and the resultant was added with 1:3 mixture of basic medium and tissue digestion solution (the amount of tissue digestion solution added was about 10 mL tissue digestion solution for 1 g of tumor tissue). The samples were marked with names and numbers, sealed with sealing film, and then digested in a shaker (Zhichu Instrument ZQLY-180N) at 37° C., 300 rpm. The completion of digestion was determined via observation every 30 minutes, based on the existing of visible particles or not. • 3.4. After the digestion was completed, undigested tissue mass was filtered out through a […] filter mash. The tissue mass on the filter mash was rinsed into the centrifuge tube with basic medium to reduce cell loss. The resultant was centrifuged at 25° C., 1500 rpm for 4 minutes. • 3.5. […] If there were blood cells, 8 mL blood cell lysate (purchased from Sigma) was added in the resultant and fully mixed, lysed at 4° C. for 20 minutes, with inverting and mixing once during the process. The resultant was centrifuged at 25° C., 1500 rpm for 4 minutes. • 3.6. The supernatant was discarded and 2 mL basic medium was added to resuspend the cells for reserve.\n• 4.1 Microscopic observation: a small amount of resuspended cells were plated in a culture dish, and the density and morphology of cancer cells were observed under a microscope (CNOPTEC, BDS400); • 4.2 Viable cell counting: 12 μL of the resuspended cell suspension was fully mixed with 12 μL of trypan blue staining solution (Manufacturer: Sangon Biotech (Shanghai) Co., Ltd.), and then 20 μL of the mixture was added into a cell counting plate (Manufacturer: Countstar, specifications: 50 pieces/box).\nThe primary liver cancer cells obtained in the above steps were resuspended with pre-cooled DMEM/F12 and counted. The cell density was diluted to 5-10×10^6 cells/mL and 400 μL of the diluted cell suspension was added with an equal volume of Matrigel matrix gel (Corning) and mixed gently and well. Then, the mixture was inoculated at 5 μL/well onto a 96-well plate. The inoculated plate was placed into an incubator for 30 minutes until Matrigel is completely coagulated. Then, the culture mediums as shown in Table 1 that have been come to room temperature in advance were added, respectively, and the culture mediums were renewed every three days for expansion and cultivation. After 7 days, the cultured organoids were photographed and the diameters of the organoids were measured and compiled, so as to compare the promoting effects of various factors on the proliferation of hepatoma organoids. As the experimental control, the basic medium without any additives was used."}, "[2]": {"test_system": "hepatoma organoids (sample GL-006)", "test": "Drug screening on hepatoma organoids, CellTiter-Glo viability and microscopy (Example 5)", "details": "for growth of organoids after drug treatment (photos): after 5 days of drug treatment, microscope photos, FIG. 5A; for inhibitory effect on the growth of hepatoma organoids (drug inhibition rate): two concentrations (1 and 0.1 mM stocks diluted 1000 times), 5 days, CellTiter-Glo, FIG. 5B", "description": "Primary liver cancer cells were isolated from liver cancer intraoperative sample (GL-006) according to the method described in Section (2), Example 1, and were cultured to obtain organoids by using HC-3 culture medium until the diameters of hepatoma organoids exceeded 50 μm, which were then used for drug screening.\nPrepare Three drugs with two concentration gradients were prepared according to the table below (Bortezomib, Aclarubicin, and Doxorubicin; all purchased from MCE) and store for use.\nThe prepared drugs were taken out and placed at room temperature. The drugs were diluted 1000 times with HC-3 culture medium for later use. The organoids cultured and obtained according to step (1) were taken out from the incubator, the culture mediums were removed from the wells, and the culture mediums containing drugs were slowly added into the wells along the well wall. After the addition of drug, disinfect the surface of the 96-well plate was sterilized and then was transferred to the incubator for further cultivation. After 5 days, the viability of organoids were measured.\nCellTiter-Glo luminescent reagent (purchased from Promega) was taken out from a 4° C. refrigerator, and 10 mL of the reagent was added into the loading slot; the 96-well plate for testing was taken out from the incubator, and 20 μL CellTiter-Glo luminescent reagent was added into each well. After standing for 10 minutes followed by mixing well, the test was conducted by using a multi-functional microplate reader (Envision, Perkin Elmer)."}, "[3]": {"test_system": "hepatoma organoids (samples GL-003, GL-004)", "test": "Effects of different concentrations of factors in the culture medium on proliferation of hepatoma organoids (Example 2)", "details": "added to HC-3 medium lacking that factor; organoid diameter ratio to Blank Control after 10 days, FIGS. 1A-1K", "description": "Primary liver cancer cells were obtained from intraoperative tissue samples (Nos. GL-003, GL-004) in accordance with the method described in Section (2), Example 1, and the organoids were cultured using the culture medium formulations as shown in Table 2 below.\nWhen using the culture medium of Formulation 1, to a 96-well plate inoculated with organoids was added the prepared B27 in addition to the medium of Formulation 1, with 200 μL per well, such that the final concentrations of B27 were 1:25, 1:50 and 1:100, respectively; a well of Blank Control (BC) was set using the medium of Formulation 1. The final concentrations of other factors added in this series of culture mediums were the same as those in HC-3 culture medium. The experiments of Formulations 1-11 below were also conducted in the same way and will not be described in details.\n(§1) When using the culture medium of Formulation 2, to a 96-well plate inoculated with organoids was added the prepared HGF in addition to the medium of Formulation 2, with 200 μL per well, such that the final concentrations of HGF were 1 ng/ml, 5 ng/mL and 25 ng/mL, respectively; a well of Blank Control (BC) was set using the medium of Formulation 2.\nas §1, with “3,” for “2,”, “ITS cell culture additive” for “HGF”, “1:300, 1:100” for “1 ng/ml, 5 ng/mL”, “1:30,” for “25 ng/mL,”, “3.” for “2.”\nas §1, with “4,” for “2,”, “Y27632” for “HGF”, “3 μM, 10 μM” for “1 ng/ml, 5 ng/mL”, “30 μM,” for “25 ng/mL,”, “4.” for “2.”\nas §1, with “6,” for “2,”, “NRG1” for “HGF”, “ng/ml” for “ng/mL”, “ng/ml,” for “ng/mL,”, “6.” for “2.”\nas §1, with “7,” for “2,”, “insulin” for “HGF”, “µL” for “μL”, “μg/mL, 3 μg/mL” for “ng/ml, 5 ng/mL”, “10 μg/mL,” for “25 ng/mL,”, “7.” for “2.”\nas §1, with “8,” for “2,”, “EGF” for “HGF”, “2” for “1”, “6 ng/ml” for “5 ng/mL”, “18 ng/ml,” for “25 ng/mL,”, “8.” for “2.”\nas §1, with “9,” for “2,”, “GlutaMAX” for “HGF”, “1:300, 1:100” for “1 ng/ml, 5 ng/mL”, “1:30,” for “25 ng/mL,”, “9. […]” for “2.”"}},
  "data": [
    {"compound": "Oc1ccc(-c2nc(-c3ccncc3)c(-c3ccc(F)cc3)[nH]2)cc1", "note": "[SB202190]", "values": [
      {"measurement": "Level of promoting proliferation", "setting": "[1]", "result": "−"}
    ]},
    {"compound": "basic fibroblast growth factor, bFGF: growth factor medium additive, supplier R&D", "values": [
      {"measurement": "Level of promoting proliferation", "setting": "[1]", "result": "−"}
    ]},
    {"compound": "CC(C)C[C@H](NC(=O)[C@H](Cc1ccccc1)NC(=O)c1cnccn1)B(O)O", "note": "[Bortezomib]", "values": [
      {"measurement": "growth of organoids after drug treatment (photos)", "setting": "[2]", "result": "significantly inhibited"},
      {"measurement": "inhibitory effect on the growth of hepatoma organoids (drug inhibition rate)", "setting": "[2]", "result": "strong inhibitory effects"}
    ]},
    {"compound": "Cc1c[nH]c(-c2cnc(NCCNc3ccc(C#N)cn3)nc2-c2ccc(Cl)cc2Cl)n1", "note": "[CHIR99021]", "values": [
      {"measurement": "Level of promoting proliferation", "setting": "[1]", "result": "−"}
    ]},
    {"compound": "COc1cccc2c1C(=O)c1c(O)c3c(c(O)c1C2=O)C[C@@](O)(C(=O)CO)C[C@@H]3O[C@H]1C[C@H](N)[C@H](O)[C@H](C)O1", "note": "[Doxorubicin]", "values": [
      {"measurement": "inhibitory effect on the growth of hepatoma organoids (drug inhibition rate)", "setting": "[2]", "result": "no inhibitory effect"}
    ]},
    {"compound": "CN1C(=O)C(c2c(F)cccc2F)N(C)c2nc(Nc3ccc(S(N)(=O)=O)cc3)ncc21", "note": "(stereo not shown) [Compound 1, 4-((7-(2,6-Difluorophenyl)-5,8-dimethyl-6-oxo-5,6,7,8-tetrahydropteridin-2-yl)amino)benzsulfamide]", "values": [
      {"measurement": "preferable amount in the culture medium for promoting organoid proliferation", "setting": "[3]", "result": "2.5 to 10", "unit": "µM"},
      {"measurement": "Level of promoting proliferation", "setting": "[1]", "result": "+"}
    ]},
    {"compound": "CC[C@@]1(O)C[C@H](O[C@H]2C[C@H](N(C)C)[C@H](O[C@H]3C[C@H](O)[C@H](O[C@H]4CCC(=O)[C@H](C)O4)[C@H](C)O3)[C@H](C)O2)c2c(cc3c(c2O)C(=O)c2c(O)cccc2C3=O)[C@H]1C(=O)OC", "note": "[Aclarubicin]", "values": [
      {"measurement": "growth of organoids after drug treatment (photos)", "setting": "[2]", "result": "significantly inhibited"},
      {"measurement": "inhibitory effect on the growth of hepatoma organoids (drug inhibition rate)", "setting": "[2]", "result": "varied significantly"}
    ]},
    {"compound": "C[C@@H](N)[C@H]1CC[C@H](C(=O)Nc2ccncc2)CC1", "note": "[Compound Y27632]", "values": [
      {"measurement": "preferable amount in the culture medium for promoting organoid proliferation", "setting": "[3]", "result": "3 to 30", "unit": "µM"},
      {"measurement": "Level of promoting proliferation", "setting": "[1]", "result": "+"}
    ]},
    {"compound": "hepatocyte growth factor, HGF: growth factor medium additive, supplier R&D", "values": [
      {"measurement": "Level of promoting proliferation", "setting": "[1]", "result": "+"}
    ]},
    {"compound": "epidermal growth factor, EGF: growth factor medium additive, supplier R&D (NSDSECPLSHDGYCLHDGVCMYIEALDKYACNCVVGYIGERCQYRDLKWWELR; Epidermal growth factor; UniProt P01133 971-1023, looked up)", "values": [
      {"measurement": "preferable amount in the culture medium for promoting organoid proliferation", "setting": "[3]", "result": "2 to 18", "unit": "ng/mL"},
      {"measurement": "Level of promoting proliferation", "setting": "[1]", "result": "+"}
    ]},
    {"compound": "C[C@@H]1C[C@H]2[C@@H]3CCC4=CC(=O)C=C[C@]4(C)[C@@]3(F)[C@@H](O)C[C@]2(C)[C@@]1(O)C(=O)CO", "note": "[dexamethasone]", "values": [
      {"measurement": "preferable amount in the culture medium for promoting organoid proliferation", "setting": "[3]", "result": "0.1 to 1", "unit": "µM"}
    ]},
    {"compound": "insulin: medium additive, supplier Peprotech", "values": [
      {"measurement": "preferable amount in the culture medium for promoting organoid proliferation", "setting": "[3]", "result": "1000 to 10000", "unit": "ng/mL"},
      {"measurement": "Level of promoting proliferation", "setting": "[1]", "result": "+"}
    ]},
    {"compound": "Cc1cccc(-c2nn(C(=S)Nc3ccccc3)cc2-c2ccnc3ccccc23)n1", "note": "[Compound A8301]", "values": [
      {"measurement": "Level of promoting proliferation", "setting": "[1]", "result": "−"}
    ]}
  ]
}
